One series has as its system well trained athletes. Nature of the series: effects reported by well trained athletes given N-acetyl-beta alanine. To be noted: 5 grams per day x1, 10 well trained athletes, self-report. Format: in vivo, human. An excerpt: For the exemplary purposes of this disclosure, the Applicants have also administered N-acetyl-beta alanine at a dose of 5 grams per day ×1 in 10 subjects, all of them well trained athletes that had in the past used beta alanine and were well aware of it's benefits. All of the subjects had not used beta alanine for at least a month. They were asked to report the effects of the “new beta alanine preparation” they were offered.

Series [1] concerns subjects. Nature of the series: paresthesia after administration of N-acetyl beta alanine to subjects. Format: in vivo, human. The source says: For the exemplary purposes of this disclosure, the Applicants have administered N-acetyl beta alanine to over 30 different subjects in doses ranging from 1 to even 10 grams.
A short description of series [2]: solubility in organic solvents. Format: physicochemical.
Another series in a line: solubility in water. Format: physicochemical. To be noted: found by applicants.
For series [3] the following is noted: cited from earlier work.
Series [4] relates to subjects. To be noted: 10 weeks of resistance training with supplementation; cited from earlier work.
The next series has as its system mice. Particulars: cited from earlier work.
Series [5] deals with experienced resistance-trained athletes. To be noted: four weeks of supplementation; cited from earlier work.
The conditions of series [6]: single ingested dose; cited from earlier work.
For another series, the system named is individuals. To be noted: cited from earlier work.
A further series has as its system elderly men and women. Particulars: cited from earlier work.
For series [7] the following is noted: cited from earlier work. This is another data set of the same source.
For series [8] the following is noted: described (literature); cited from earlier work.
The next series relates to fructose-fed rats. Particulars: preliminary experiment; cited from earlier work.

Turning to `CC(=O)NCCC(=O)O` [N-acetyl beta alanine, 3-acetamidopropanoic acid], in the series with well trained athletes, the “rate at which full benefits were exhibited” value is on record as “full benefits were exhibited at a faster rate” and the “reported effectiveness compared with normal beta-alanine” value was “improved effectiveness over normal beta-alanine”. Besides, in the series with subjects [1] (large doses of 5+ grams), the paresthesia entry is “no paresthesia observed”. Moreover, the “paresthesia or negative feelings described by users” value in the series with subjects [1] (over 30 subjects, doses ranging from 1 to 10 grams) is on record as “No paresthesia or negative feelings”. In series [2], the “solubility in water and organic solvents” value is “soluble in water and organic solvents”. Further, the solubility in water in “solubility in water” was 22 g/100 mL.
On to `NCCC(=O)O` [beta alanine, β-Alanine], for which, in [3] (in vivo), the “maximal strength or VO2max” value is “does not improve maximal strength or VO2max” and the “onset of neuromuscular fatigue” value is on record as “delay the onset of neuromuscular fatigue”. The “performance in high-intensity exercise” value in [3] (multiple bouts of high-intensity exercise and single bouts lasting more than 60 s) is on record as “improvements in performance”. Besides, the “increase in Muscle-Carnosine” value with subjects [4] is reported as 12.81+/−7.97 mmol×kg (−1) dry muscle. The “behavioral effect of supplemented diet” value in the series on mice was “anxiolytic-like effect”. Further, the “muscular endurance during resistance training” value in series [5] is listed as “can significantly improve muscular endurance”. For the same compound, the “single dose above which symptoms of paresthesia may be observed” value in series [6] is listed as “higher than 800 mg”. In addition, the “aerobic capacity (VO2max)” value with individuals (post supplementation, 28 days) was “reduced aerobic capacity”. Also, the “sub-maximal endurance performance (OBLA)” value in the series with individuals (supplementation for 28 days) is given as “enhanced sub-maximal endurance performance by delaying OBLA”. Besides, the “increase in physical working capacity fatigue threshold” value with elderly men and women (800 mg x3 per day, elderly (55-92 years)) is listed as 28%. Also, in the series with elderly men and women (ninety days of supplementation, elderly men and women), the “physical working capacity / onset of neuromuscular fatigue” value is recorded as “may increase physical working capacity by delaying the onset of neuromuscular fatigue”. Moreover, the “acidosis due to exercise” value in [7] (4.8 grams per day) was “can attenuate acidosis due to exercise”. The “fall in blood pH during high-intensity exercise” value in series [7] (chronic supplementation) is listed as “can attenuate the fall in blood pH”. Besides, in series [8], the water solubility is recorded as 55-89 grams/100 ml.
With `NCCC(=O)N[C@@H](Cc1cnc[nH]1)C(=O)O` [carnosine], in the series with fructose-fed rats, the “diabetes-associated increase in blood pressure” value was “suppressed diabetes-associated increase in blood pressure”.
Regarding `NCCS(=O)(=O)O` [taurine], in the series with mice, the “behavioral effect of supplemented diet” value is on record as “antidepressant-like effect”.
